According to patent US20150366252A1, “SWEETENER ENHANCERS AND METHODS FOR USING THE SAME” (International Flavors & Fragrances Inc., priority 2014, published 2015):

Test system: human panelists (sweet taste of glucose)
Experiment: Glucose enhancement test: paired-comparison human panelist taste test
Type: in vivo
Settings: for glucose concentration perceived by panelists as equally sweet (as sweet as): composition of 7% glucose + 8 ppm compound; for glucose enhancement effects (overall statement): human panelist taste test, 7% glucose + 8 ppm compound
Experimental: Compounds 1-3 were tested for glucose sweetness enhancement by human panelist taste tests. Test samples containing the compound of interest were tasted in pairs by the panelist to determine which of the samples were sweeter. Binominal distribution for two-sided pair comparisons were used to determine the probability of the correct number of responses at α=0.05 (95% confidence level).

[1] = 7% glucose + 8 ppm compound vs 8.5% glucose
[2] = 7% glucose + 8 ppm compound vs 8.5% glucose, 12 panelists × 2 reps

With NC1=NS(=O)(=O)Nc2cccc(OCC3(C(=O)NC4CCCC4)CCCNC3=O)c21 (stereo not shown) [Compound 1, 3-(((4-Amino-2,2-dioxido-1H-benzo[c][1,2,6]thiadiazin-5-yl)oxy)methyl)-N-cyclopentyl-2-oxopiperidine-3-carboxamide] the “sweetness perceived by panelists relative to 8.5% glucose” value [1] was “significantly sweeter”, the “Total (sample selected as sweeter by panelists)” value (7% glucose + 8 ppm compound vs 9.5% glucose, paired comparison) was 17 and the “Total (sample selected as sweeter by panelists)” value (7% glucose + 8 ppm compound vs 10% glucose, paired comparison) was 11. The “Total (sample selected as sweeter by panelists)” value (7% glucose + 8 ppm compound vs 10.5% glucose, paired comparison) was 6 and the “glucose concentration perceived by panelists as equally sweet (as sweet as)” value (“glucose concentration perceived” below) was 10 % glucose.
In the case of CC(C)NC(=O)C1(COc2cccc3c2C(N)=NS(=O)(=O)N3)CCCNC1=O (stereo not shown) [Compound 2, 3-(((4-amino-2,2-dioxido-1H-benzo-[c][1,2,6]thiadiazin-5-yl)oxy)methyl)-N-isopropyl-2-oxopiperidine-3-carboxamide], the “sweetness perceived by panelists relative to 8.5% glucose” value [1] is reported as “significantly sweeter” and the “Total (sample selected as sweeter by panelists)” value [2] is reported as 23.
With NC1=NS(=O)(=O)Nc2cccc(OCC3(C(=O)NC4CCCCC4)CCCNC3=O)c21 (stereo not shown) [Compound 3, 3-(((4-amino-2,2-dioxido-1H-benzo[c][1,2,6]thiadiazin-5-yl)oxy)methyl)-N-cyclohexyl-2-oxopiperidine-3-carboxamide] the “sweetness perceived by panelists relative to 8.5% glucose” value [1] was “significantly sweeter”, the “Total (sample selected as sweeter by panelists)” value [2] was 21 and the “Total (sample selected as sweeter by panelists)” value (7% glucose + 8 ppm compound vs 9% glucose, 12 panelists × 2 reps) was 14. The “glucose concentration perceived” value was 9 % glucose.
With CCCNC(=O)C(C)(C)COc1cccc2c1C(N)=NS(=O)(=O)N2 [FEMA 4701, reference compound] the “Total (sample selected as sweeter by panelists)” value (7% glucose + 8 ppm compound vs 8% glucose, 12 panelists × 2 reps) was 13, the “sweetness perceived by panelists relative to 8.5% glucose” value [1] was “significantly less sweet” and the “Total (sample selected as sweeter by panelists)” value [2] was 21. For the same compound, the “glucose concentration perceived” value was 8 % glucose and the “glucose enhancement effects (overall statement)” value was “only showed marginal glucose enhancement effects”.
Cc1nc2cccc(OCC(C)(C)C(=O)NC(C)C)c2c(N)c1C(=O)O [FEMA 4774, reference compound] was tested, and the “sweetness perceived by panelists relative to 7% glucose” value (7% glucose + 8 ppm compound vs 7% glucose) was “only being directionally sweeter”, the “Total (sample selected as sweeter by panelists)” value (7% glucose + 8 ppm compound vs 7% glucose, 12 panelists × 2 reps) was 17 and the “glucose enhancement effects (overall statement)” value was “did not show significant glucose enhancement effects”.
